Measured values reported in patent US6900351B2, “Aminopolycarboxylates, process for producing the same and use thereof” (Tosoh Corporation, priority 2000, dated 2005).

Experiment: Chelatability (constant of calcium ion stability) test with calcium ion electrode
Assay type: physicochemical
Details: 25° C., pH 10, 1 mmol/l chelating agent with equivalent 1 mmol/l calcium chloride
Procedure: To 1 mmol/l aqueous solution of this sodium aminopolycarboxylate, an equivalent amount of a 1 mmol/l aqueous solution of calcium chloride was added. Then the constant of calcium ion stability (pKCa^2+) was determined by measuring the calcium ion concentration at pH 10.0 by using a calcium ion electrode.
(1) Formation of Calibration Curve
By using calcium chloride, solutions having calcium concentrations of 0.1 mmol/l, 1.0 mmol/l and 10 mmol/l were prepared and the potential of each solution was measured. Based on the data thus obtained, a calibration curve of the logarithmic calcium ion concentration vs. potential was formed.
(2) Measurement of Constant of Stability
An aqueous solution (100 ml) was prepared by adding a chelating agent (1 mmol/l) and calcium chloride (1 mmol/l) at an equivalent ratio to an aqueous solution containing 0.1 mmol/l of ammonium chloride to achieve a constant ionic strength. After stirring this solution for 10 minutes, the potential of the solution at 25° C. at pH 10 was measured. Based on the calibration curve formed in (1), the calcium ion concentration corresponding to the potential thus measured was determined and the constant of stability was calculated on the assumption that the sample and calcium ion formed a complex at a ratio of 1:1.

O=C([O-])CC(NCCNC(CC(=O)[O-])C(=O)O)C(=O)[O-].[Na+].[Na+].[Na+] (stereo not shown) [trisodium N,N′-ethylenediaminedisuccinate, reference compound]
constant of calcium ion stability (pKCa2+): 3.8
